From patent US20190134033A1, “PHARMACEUTICAL COMBINATIONS” (Novartis AG, priority 2013, published 2019) come the findings set out here.

Assay [1] concerns NB-1 neuroblastoma xenograft. The experiment in a line: NB-1 neuroblastoma in vivo xenograft model, LDK378 and Compound C alone and combined (Example 2, FIG. 8). As to conditions: NB1 model, PO QD, LDK378 50 mg/kg, Compound C 20 mg/kg. Here is the method: The combination of LDK378 (Compound B) and HDM-2/p53 inhibitor (S)-5-(5-Chloro-1-methyl-2-oxo-1,2-dihydro-pyridin-3-yl)-6-(4-chloro-phenyl)-2-(2,4- dimethoxy-pyrimidin-5-yl)-1-isopropyl-5,6-dihydro-1H-pyrrolo[3,4-d]imidazol-4-one (Compound C) were tested in NB-1 neuroblastoma in vivo xenograft model. A total of 5 animals per group were enrolled in efficacy study. For single-agent and combination studies, animals were dosed via oral gavage for both LDK378 and Compound C. LDK378 was formulated in 0.5% CMC/0.5% Tween 80, and Compound C was formulated in Methylcellulose 0.5% w/V in pH 6.8 50 mM phosphate buffer at 20 mg/kg as free base. For NB1 model, the tumors reached approximately 200 mm^3 at day 16 post implantation. On Day 16, tumor-bearing mice were randomized into treatment groups.
Animals were weighed at dosing day(s) and dose was body weight adjusted, dosing volume was 10 ml/kg. Tumor dimensions and body weights were collected at the time of randomization and twice weekly thereafter for the study duration. The following data was provided after each day of data collection: incidence of mortality, individual and group average body weights, and individual and group average tumor volume.

The subject of the next assay is p53. The experiment in a line: Induction of p53 and its downstream target genes in ALK mutant and p53 WT neuroblastoma cell lines. In kind it is cell-based. The procedure:
(§1) Compound stocks of LDK378 (compound B) and NVP-CGM097 (compound A) are prepared in DMSO at a final concentration of 10 mM. Working stocks of compound A and compound B are serially diluted in the appropriate cell culture medium to achieve final assay concentrations ranging from 10 μM to 0.039 μM.
(§2) ALK+NB neuroblastoma cell line is disclosed in G. Barone, et al in the journal Clin. Cancer Res., Vol 19, pp 5814-5821 (2013).

In assay [2] the test system is TRP-590A-SHSY5Y-XEF (ALK F1174L mutated). The experiment in a line: SY5Y Xenograft, LDK378 and CGM097 alone and combined (FIG. 6). The assay is classed as in vivo.
The test system of a further assay is NB-1 Xenograft. Kind of assay: NB-1 Xenograft, LDK378 single agent and combinations with CGM097 and LEE011 (FIG. 5, FIG. 7). In kind it is in vivo. The source says: FIG. 5 summarizes data for treatments with LDK378 (ALK inhibitor) and CGM097 (HDM-2/P53 Inhibitor) as single agents and in combination in a NB-1 Xenograft.
FIG. 7 summarizes data for LDK378 Single Agent and Combination Treatments with NVP-CGM097 in a NB-1 Xenograft. […] After treatment termination, tumors resumed growth.

A further assay deals with ALK. Kind of assay: ALK phosphorylation in ALK mutant and p53 WT neuroblastoma cell lines. The assay is classed as cell-based. The procedure: as §1, §2

On to `COc1ncc(-c2nc3c(n2C(C)C)[C@H](c2ccc(Cl)cc2)N(c2cc(Cl)cn(C)c2=O)C3=O)c(OC)n1` [Compound C, (S)-5-(5-Chloro-1-methyl-2-oxo-1,2-dihydro-pyridin-3-yl)-6-(4-chloro-phenyl)-2-(2,4-dimethoxy-pyrimidin-5-yl)-1-isopropyl-5,6-dihydro-1H-pyrrolo[3,4-d]imidazol-4-one], for which the “T/C % on day 25” value in assay [1] is reported as 50.8%; in assay [1] (listed as COMPOUND C), 50.80%.

In the case of `COc1cc2c(cc1OC(C)C)[C@H](c1ccc(Cl)cc1)N(c1ccc(N(C)C[C@H]3CC[C@H](N4CCN(C)C(=O)C4)CC3)cc1)C(=O)C2` [CGM097, (S)-1-(4-Chloro-phenyl)-7-isopropoxy-6-methoxy-2-(4-{methyl-[4-(4-methyl-3-oxo-piperazin-1-yl)-trans-cyclohexylmethyl]-amino}-phenyl)-1,4-dihydro-2H-isoquinolin-3-one], the “induction of p53 and its downstream target genes” value with p53 is “caused induction of p53 and its downstream target genes”. Moreover, the “tumor growth under continuous treatment” value in assay [2] was “continued to grow”.

As for `Cc1cc(Nc2ncc(Cl)c(Nc3ccccc3S(=O)(=O)C(C)C)n2)c(OC(C)C)cc1C1CCNCC1` [LDK378, 5-chloro-N2-(2-isopropoxy-5-methyl-4-(piperidin-4-yl)phenyl)-N4-[2-(propane-2-sulfonyl)-phenyl]-pyrimidine-2,4-diamine], in assay [1], the “T/C % on day 25” value came out at 27.6%. Further, the figures for the “tumor growth under continuous treatment” value (in assay [2]; in the assay with NB-1 Xenograft) were “continued to grow” and “resumed growth before day 41”, respectively. For the same compound, the ALK phosphorylation entry with ALK is “inhibited ALK phosphorylation”.
